In ChEMBL document CHEMBL4813973, “Discovery of novel N-benzylbenzamide derivatives as tubulin polymerization inhibitors with potent antitumor activities” (Eur J Med Chem, 2021):
pIC50: −log10 of the molar value. Values after ≈ are worked out from the molar mass of the structure shown. Values belong to the compound of their own block, whether it stands above or below them.

Tests used:
A-431 = assay: Antiproliferative activity against human A-431 cells assessed as reduction in cell viability incubated for 72 hrs by MTT assay; format: functional, cell-based; settings: A-431, 72 h
HCT-8 = assay: Antiproliferative activity against human HCT-8 cells assessed as reduction in cell viability incubated for 72 hrs by MTT assay; format: functional, cell-based; settings: Homo sapiens, HCT-8, 72 h; read-out: IC50
MDA-MB-231 = assay: Antiproliferative activity against human MDA-MB-231 cells assessed as reduction in cell viability incubated for 72 hrs by MTT assay; format: functional, cell-based; settings: MDA-MB-231, 72 h
H22 [1] = assay: Antiproliferative activity against mouse H22 cells assessed as reduction in cell viability incubated for 72 hrs by MTT assay; format: functional, cell-based; settings: H22, 72 h
L02 = assay: Cytotoxicity against human L02 cells assessed as reduction in cell viability incubated for 72 hrs by MTT assay; format: cell-based; settings: L02, 72 h
HepG2 = assay: cells; settings: Homo sapiens, HepG2, 72 h
K562 = assay: cells; settings: Homo sapiens, K562, 72 h
Description: Antiproliferative activity against human K562 cells assessed as reduction in cell viability incubated for 72 hrs by MTT assay

H22 [2] = assay: Antitumor activity against […] xenografted in ICR mouse assessed as reduction of tumor weight at 20 mg/kg/day, iv for 21 days; format: functional; settings: 504 h, time 21 day
[3] = Aqueous solubility of the compound in phosphate buffer at pH 7.4 by HPLC-UV analysis; format: physicochemical
[4] = Aqueous solubility of the compound in aqueous HCl at pH 2 by HPLC-UV analysis; format: physicochemical
[5] = n-Octanol/water partition coefficient, logD of the compound incubated for 24 hrs at pH 7.4 by HPLC analysis; format: physicochemical

SMILES: COc1ccc(CNC(=O)c2cc(C(F)(F)F)ccc2N2CCCCC2)cc1O
pIC50 (A-431): 7.01

SMILES: COc1ccc(CNC(=O)c2cc([N+](=O)[O-])ccc2N2CCOCC2)cc1
pIC50 (A-431): 6.90

SMILES: O=C(NCc1ccc(Cl)cc1)c1cc([N+](=O)[O-])ccc1N1CCOCC1
pIC50 (A-431): < 6.00

SMILES: O=C(NCc1ccc(C(F)(F)F)cc1)c1cc([N+](=O)[O-])ccc1N1CCOCC1
pIC50 (A-431): < 6.00

SMILES: COc1ccc(CNC(=O)c2cc([N+](=O)[O-])ccc2N(C)C)cc1O
pIC50 (A-431): < 6.00

SMILES: COc1ccc(CNC(=O)c2ccccc2N2CCCCC2)cc1O
pIC50 (A-431): 7.52
pIC50 (HCT-8): 7.54
pIC50 (MDA-MB-231): 7.54
pIC50 (H22 [1]): 7.54
pIC50 (L02): 7.01
pIC50 (HepG2): 7.51
pIC50 (K562): 7.52

SMILES: COc1ccc(CNC(=O)c2cc([N+](=O)[O-])ccc2N2CCNCC2)cc1O
pIC50 (A-431): < 6.00

SMILES: COc1cc(CNC(=O)c2cc([N+](=O)[O-])ccc2N2CCOCC2)cc(OC)c1OC
pIC50 (A-431): < 6.00

SMILES: O=C(OCc1cccc2[nH]ccc12)c1cc([N+](=O)[O-])ccc1N1CCOCC1
pIC50 (A-431): < 6.00

SMILES: COc1ccc(CNC(=O)c2cc([N+](=O)[O-])ccc2N2CCCCC2)cc1O
pIC50 (A-431): 7.92
pIC50 (HCT-8): 7.96
pIC50 (MDA-MB-231): 7.54
pIC50 (H22 [1]): 7.60
pIC50 (L02): 6.92
pIC50 (HepG2): 7.92
pIC50 (K562): 7.72

SMILES: O=C(NCc1ccc(OC(F)(F)F)cc1)c1cc([N+](=O)[O-])ccc1N1CCOCC1
pIC50 (A-431): < 6.00

SMILES: COc1ccc(CNC(=O)c2cc([N+](=O)[O-])ccc2N2CCOCC2)cn1
pIC50 (A-431): < 6.00

SMILES: COc1ccc(CNC(=O)c2cc([N+](=O)[O-])ccc2N2CCSCC2)cc1O
pIC50 (A-431): 7.22
pIC50 (HCT-8): 7.22
pIC50 (MDA-MB-231): 7.21
pIC50 (H22 [1]): 7.26
pIC50 (L02): 6.95
pIC50 (HepG2): 7.24
pIC50 (K562): 7.31

SMILES: COc1ccc(N2CCCCC2)c(C(=O)NCc2ccc(OC)c(O)c2)c1
pIC50 (A-431): 7.24

SMILES: CCN(CC)c1ccc([N+](=O)[O-])cc1C(=O)NCc1ccc(OC)c(O)c1
pIC50 (A-431): 7.29

SMILES: COc1ccc(CNC(=O)c2cc([N+](=O)[O-])ccc2N2CCS(=O)(=O)CC2)cc1O
pIC50 (A-431): < 6.00

SMILES: CSc1ccc(CNC(=O)c2cc([N+](=O)[O-])ccc2N2CCOCC2)cc1
pIC50 (A-431): 6.66

SMILES: O=C(NCc1ccc(O)cc1)c1cc([N+](=O)[O-])ccc1N1CCOCC1
pIC50 (A-431): < 6.00

SMILES: CN(C)c1ccc(CNC(=O)c2cc([N+](=O)[O-])ccc2N2CCOCC2)cc1
pIC50 (A-431): 6.84

SMILES: O=C(OCc1ccc2[nH]ccc2c1)c1cc([N+](=O)[O-])ccc1N1CCOCC1
pIC50 (A-431): < 6.00

SMILES: COCCNc1ccc([N+](=O)[O-])cc1C(=O)NCc1ccc(OC)c(O)c1
pIC50 (A-431): < 6.00

SMILES: COc1ccc(/C=C\c2cc(OC)c(OC)c(OC)c2)cc1OP(=O)(O)O [FOSBRETABULIN]
inhibition in vivo at 20 mg/kg/day (H22 [2]): 62.7%

SMILES: COc1ccc(C(C)NC(=O)c2cc([N+](=O)[O-])ccc2N2CCOCC2)cc1 (centres undefined)
pIC50 (A-431): 6.62

SMILES: CCOc1ccc(CNC(=O)c2cc([N+](=O)[O-])ccc2N2CCOCC2)cc1
pIC50 (A-431): 6.84

Second part, led by results:

pIC50 (A-431): 6.81
SMILES: COc1ccc(-c2ccc(N3CCOCC3)c(C(=O)NCc3ccc(OC)c(O)c3)c2)cc1

pIC50 (A-431): 6.50
SMILES: COc1ccc(CNC(=O)c2cc(NCc3ccco3)ccc2N2CCOCC2)cc1O

pIC50 (A-431): 6.41
SMILES: COc1ccc(CNC(=O)c2cc(-c3ccncc3)ccc2N2CCOCC2)cc1O

pIC50 (A-431): 6.98
SMILES: COc1ccc(CNC(=O)c2cc(N(C)C)ccc2N2CCOCC2)cc1O

pIC50 (A-431): 7.03
SMILES: COc1ccc(CNC(=O)c2cc([N+](=O)[O-])ccc2N2CCOCC2)cc1F

pIC50 (A-431): 7.43
pIC50 (HCT-8): 7.25
pIC50 (MDA-MB-231): 7.24
pIC50 (HepG2): 7.21
pIC50 (K562): 7.40
SMILES: COc1ccc(CNC(=O)c2cc(C(F)(F)F)ccc2N2CCOCC2)cc1O
pIC50 (H22 [1]): 7.26
pIC50 (L02): 6.99

pIC50 (A-431): 7.52
pIC50 (HCT-8): 7.52
pIC50 (MDA-MB-231): 7.54
pIC50 (HepG2): 7.51
pIC50 (K562): 7.62
SMILES: COc1ccc(CNC(=O)c2cc(Br)ccc2N2CCOCC2)cc1O
pIC50 (H22 [1]): 7.62
pIC50 (L02): 6.97

pIC50 (A-431): 7.55
pIC50 (HCT-8): 7.57
pIC50 (MDA-MB-231): 7.54
pIC50 (HepG2): 7.54
pIC50 (K562): 7.21
SMILES: COc1ccc(N2CCOCC2)c(C(=O)NCc2ccc(OC)c(O)c2)c1
pIC50 (H22 [1]): 7.49
pIC50 (L02): 7.28

pIC50 (A-431): 6.65
SMILES: COc1ccc(CNC(=O)c2ccc([N+](=O)[O-])cc2N2CCOCC2)cc1O

pIC50 (A-431): 6.67
SMILES: COc1ccc(CNC(=O)c2cc(-c3ccco3)ccc2N2CCOCC2)cc1O

pIC50 (A-431): 5.97
SMILES: COc1ccc(CNC(=O)c2cc(NCc3ccncc3)ccc2N2CCOCC2)cc1O

pIC50 (A-431): 6.32
SMILES: COc1ccc(CNC(=O)c2cc(NC(=O)c3ccco3)ccc2N2CCOCC2)cc1O

pIC50 (A-431): 7.04
SMILES: COc1ccc(CNC(=O)c2cc(Br)ccc2N2CCCCC2)cc1O

pIC50 (A-431): < 6.00
SMILES: O=C(NCc1ccncc1)c1cc([N+](=O)[O-])ccc1N1CCOCC1

pIC50 (A-431): 6.01
SMILES: COc1ccc(CNC(=O)c2cnccc2N2CCOCC2)cc1O

pIC50 (A-431): 7.70
pIC50 (HCT-8): 7.21
pIC50 (MDA-MB-231): 7.26
pIC50 (HepG2): 7.32
pIC50 (K562): 7.52
SMILES: COc1ccc(CNC(=O)c2ccccc2N2CCOCC2)cc1O
pIC50 (H22 [1]): 7.31
pIC50 (L02): 6.98

pIC50 (A-431): < 6.00
SMILES: COc1ccc(C(=O)Nc2ccc(N3CCOCC3)c(C(=O)NCc3ccc(OC)c(O)c3)c2)cc1

pIC50 (A-431): 6.92
SMILES: COc1ccc(CNC(=O)c2cc(O)ccc2N2CCOCC2)cc1O

pIC50 (A-431): 6.66
SMILES: COc1ccc(CNC(=O)c2cc(NC(C)=O)ccc2N2CCOCC2)cc1O

pIC50 (A-431): 7.35
pIC50 (HCT-8): 7.22
pIC50 (MDA-MB-231): 7.24
pIC50 (HepG2): 7.21
pIC50 (K562): 7.23
SMILES: COc1ccc(CNC(=O)c2cc([N+](=O)[O-])ccc2N2CCOCC2)cc1O
pIC50 (H22 [1]): 7.30
pIC50 (L02): 6.94

pIC50 (A-431): 6.51
SMILES: COc1ccc(CNc2ccc(N3CCOCC3)c(C(=O)NCc3ccc(OC)c(O)c3)c2)cc1

pIC50 (A-431): 6.93
SMILES: COc1ccc(CNC(=O)c2ccncc2N2CCOCC2)cc1O

pIC50 (A-431): 6.43
SMILES: COc1ccc(CNC(=O)c2cc([N+](=O)[O-])ccc2N2CCCC2)cc1O

pIC50 (A-431): 7.60
pIC50 (HCT-8): 7.60
pIC50 (MDA-MB-231): 7.52
pIC50 (HepG2): 7.54
pIC50 (K562): 7.49
SMILES: COc1ccc(CNC(=O)c2cc(Cl)ccc2N2CCOCC2)cc1O
pIC50 (H22 [1]): 7.51
pIC50 (L02): 7.02

pIC50 (A-431): 6.02
SMILES: COc1ccc(CNC(=O)c2cc(NC(=O)c3ccncc3)ccc2N2CCOCC2)cc1O

pIC50 (A-431): < 6.00
SMILES: COc1ccc(CNC(=O)c2cc([N+](=O)[O-])ccc2N2CCOCC2)cc1OC

pIC50 (A-431): 7.60
pIC50 (HCT-8): 7.54
pIC50 (MDA-MB-231): 7.07
solubility [3]: < 1 µg/mL
solubility [4]: 1110 µg/mL (≈ 3.09 mM)
logD at 24 h [5]: 2.97
pIC50 (HepG2): 7.59
pIC50 (K562): 7.96
SMILES: COc1ccc(CNC(=O)c2cc(F)ccc2N2CCCCC2)cc1O
pIC50 (H22 [1]): 7.49
pIC50 (L02): 7.06
